In PubChem BioAssay (NCI):
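96-well plates; 48 h exposure; 5 concentrations. Endpoints by linear interpolation between flanking doses. Not reached: highest tested concentration assigned. At the TGI there is no net growth.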

How the values were obtained:
Assay in all cases: DTP human tumour cell line panel, 48 h
[1] = test system: HCT-15 colon
[2] = test system: HCT-116 colon
[3] = test system: ACHN renal
[4] = test system: A498 renal
[5] = test system: OVCAR-8 ovarian
[6] = test system: MCF7 breast
[7] = test system: RXF 393 renal
[8] = test system: UACC-62 melanoma
[9] = test system: BT-549 breast
[10] = test system: UO-31 renal
[11] = test system: MDA-MB-231 breast
[12] = test system: NCI-H23 lung
[13] = test system: COLO 205 colon
[14] = test system: SK-MEL-2 melanoma
[15] = test system: SK-OV-3 ovarian
[16] = test system: CAKI-1 renal
[17] = test system: 786-0 renal
[18] = test system: SF-268 CNS
[19] = test system: SF-539 CNS
[20] = test system: HT29 colon
[21] = test system: SK-MEL-5 melanoma
[22] = test system: HOP-62 NSCLC
[23] = test system: MDA-MB-435
[24] = test system: MDA-N
[25] = test system: CCRF-CEM leukemia
[26] = test system: SNB-19 CNS
[27] = test system: SW-620 colon
[28] = test system: NCI/ADR-RES ovarian
[29] = test system: TK-10 renal
[30] = test system: MOLT-4 leukemia
[31] = test system: SK-MEL-28 melanoma
[32] = test system: EKVX NSCLC
[33] = test system: KM12 colon
[34] = test system: HL-60(TB) leukemia
[35] = test system: UACC-257 melanoma
[36] = test system: MALME-3M melanoma
[37] = test system: K-562 leukemia
[38] = test system: NCI-H226 lung
[39] = test system: DU-145 prostate
[40] = test system: OVCAR-3 ovarian
[41] = test system: T-47D breast
[42] = test system: LOX IMVI melanoma
[43] = test system: IGROV1 ovarian
[44] = test system: OVCAR-5 ovarian
[45] = test system: SN12C renal
[46] = test system: PC-3 prostate
[47] = test system: U251 CNS
[48] = test system: M14 melanoma
[49] = test system: RPMI-8226 leukemia
[50] = test system: HS 578T breast
[51] = test system: SF-295 CNS
[52] = test system: NCI-H460 lung
[53] = test system: HOP-92 NSCLC
[54] = test system: A549 NSCLC
[55] = test system: HCC-2998 colon
[56] = test system: SNB-75 CNS
[57] = test system: OVCAR-4 ovarian
[58] = test system: NCI-H522 lung

Compound: CC(C)(C)C(=O)N(C(=S)OCc1ccccn1)c1ccccc1
- TGI [1]: 85.2 µM
- TGI [2]: 52.3 µM
- TGI [3]: > 100 µM
- TGI [4]: > 100 µM
- TGI [5]: > 100 µM
- TGI [6]: 61.5 µM
- TGI [7]: 63.9 µM
- TGI [8]: > 100 µM
- TGI [9]: > 100 µM
- TGI [10]: 84.3 µM
- TGI [11]: > 100 µM
- TGI [12]: > 100 µM
- TGI [13]: 49.6 µM
- TGI [14]: 70.5 µM
- TGI [15]: > 100 µM
- TGI [16]: > 100 µM
- TGI [17]: > 100 µM
- TGI [18]: > 100 µM
- TGI [19]: 46.3 µM
- TGI [20]: > 100 µM
- TGI [21]: 46.6 µM
- TGI [22]: 46.8 µM
- TGI [23]: > 100 µM
- TGI [24]: > 100 µM
- TGI [25]: 68 µM
- TGI [26]: > 100 µM
- TGI [27]: > 100 µM
- TGI [28]: 91.8 µM
- TGI [29]: > 100 µM
- TGI [30]: 62.4 µM
- TGI [31]: > 100 µM
- TGI [32]: 57.7 µM
- TGI [33]: 71.4 µM
- TGI [34]: 64.8 µM
- TGI [35]: > 100 µM
- TGI [36]: 44.6 µM
- TGI [37]: > 100 µM
- TGI [38]: > 100 µM
- TGI [39]: > 100 µM
- TGI [40]: > 100 µM
- TGI [41]: 63.5 µM
- TGI [42]: 51.6 µM
- TGI [43]: 54.3 µM
- TGI [44]: > 100 µM
- TGI [45]: > 100 µM
- TGI [46]: > 100 µM
- TGI [47]: > 100 µM
- TGI [48]: > 100 µM
- TGI [49]: 58.7 µM
- TGI [50]: > 100 µM

Compound: C/C(=N\NC1=NCCN1)c1cn(C2=NCCN2)nc1C
- TGI [51]: > 100 µM
- TGI [52]: > 100 µM
- TGI [1]: > 100 µM
- TGI [2]: > 100 µM
- TGI [3]: > 100 µM
- TGI [4]: > 100 µM
- TGI [5]: > 100 µM
- TGI [6]: > 100 µM
- TGI [7]: > 100 µM
- TGI [8]: > 100 µM
- TGI [9]: > 100 µM
- TGI [10]: > 100 µM
- TGI [11]: > 100 µM
- TGI [12]: > 100 µM
- TGI [13]: > 100 µM
- TGI [53]: > 100 µM
- TGI [54]: > 100 µM
- TGI [14]: > 100 µM
- TGI [15]: > 100 µM
- TGI [16]: > 100 µM
- TGI [17]: > 100 µM
- TGI [18]: > 100 µM
- TGI [19]: > 100 µM
- TGI [20]: > 100 µM
- TGI [21]: > 100 µM
- TGI [55]: > 100 µM
- TGI [22]: > 100 µM
- TGI [23]: > 100 µM
- TGI [24]: > 100 µM
- TGI [26]: > 100 µM
- TGI [27]: > 100 µM
- TGI [28]: > 100 µM
- TGI [29]: > 100 µM
- TGI [56]: > 100 µM
- TGI [31]: > 100 µM
- TGI [32]: > 100 µM
- TGI [33]: > 100 µM
- TGI [35]: > 100 µM
- TGI [36]: > 100 µM
- TGI [37]: > 100 µM
- TGI [38]: > 100 µM
- TGI [39]: > 100 µM
- TGI [40]: > 100 µM
- TGI [41]: > 100 µM
- TGI [43]: > 100 µM
- TGI [57]: > 100 µM
- TGI [58]: > 100 µM
- TGI [44]: > 100 µM
- TGI [45]: > 100 µM
- TGI [46]: > 100 µM
- TGI [47]: > 100 µM
- TGI [48]: > 100 µM
- TGI [49]: > 100 µM
- TGI [50]: > 100 µM

Compound: O=C(O)c1cccc2cccc(-c3c4ccc(=O)cc-4oc4cc(O)ccc34)c12
- TGI [51]: > 100 µM
- TGI [52]: > 100 µM
- TGI [1]: > 100 µM
- TGI [2]: > 100 µM
- TGI [3]: > 100 µM
- TGI [4]: > 100 µM
- TGI [5]: > 100 µM
- TGI [6]: > 100 µM
- TGI [7]: > 100 µM
- TGI [8]: > 100 µM
- TGI [9]: > 100 µM
- TGI [10]: > 100 µM
- TGI [11]: > 100 µM
- TGI [12]: > 100 µM
- TGI [13]: > 100 µM
- TGI [54]: > 100 µM
- TGI [14]: > 100 µM
- TGI [15]: > 100 µM
- TGI [16]: > 100 µM
- TGI [18]: > 100 µM
- TGI [19]: > 100 µM
- TGI [20]: > 100 µM
- TGI [21]: > 100 µM
- TGI [55]: > 100 µM
- TGI [22]: 37.2 µM
- TGI [23]: > 100 µM
- TGI [24]: > 100 µM
- TGI [25]: > 100 µM
- TGI [26]: > 100 µM
- TGI [27]: > 100 µM
- TGI [28]: > 100 µM
- TGI [29]: > 100 µM
- TGI [56]: > 100 µM
- TGI [30]: > 100 µM
- TGI [31]: > 100 µM
- TGI [32]: > 100 µM
- TGI [33]: > 100 µM
- TGI [34]: > 100 µM
- TGI [35]: > 100 µM
- TGI [36]: > 100 µM
- TGI [37]: > 100 µM
- TGI [39]: > 100 µM
- TGI [40]: 54.1 µM
- TGI [41]: > 100 µM
- TGI [42]: > 100 µM
- TGI [43]: > 100 µM
- TGI [57]: > 100 µM
- TGI [58]: > 100 µM
- TGI [44]: > 100 µM
- TGI [45]: > 100 µM
- TGI [46]: > 100 µM
- TGI [47]: > 100 µM
- TGI [48]: > 100 µM
- TGI [49]: > 100 µM
- TGI [50]: > 100 µM
